Where two headings read alike, the source gives them in different places.
Columns and labels:
MCF-7 cell line = assay: cells; type: cell-based; settings: MCF-7, SRB assay, 24 hours; for IC (total growth inhibition): read-out: TGI; for IC50: mean of three experiments, read-out: IC50
Description: In the SRB assay, sixteen hours following seeding of 3×10^3 MCF-7 cells in 96-well plates in DMEM containing 10% FCS, the medium was replaced with fresh medium supplemented with the compound of interest, or an equivalent volume of the vehicle control (DMSO), at concentrations, ranging from 0.1 to 100 μM. The compounds were added to three well to provide replicates. The cells were fixed after 24 hours, using 40% (w/v) TCA, for one hour at 4° C., washed five times with distilled, deionised H2O, followed by incubation with 0.4% (w/v) sulphorhodamine B (SRB) in 1% acetic acid for one hour at room temperature. Excess dye was removed with five washes with 1% acetic acid and drying at room temperature. Absorbance at 480 nm was determined following solubilisation of the dye by the addition of 100 μl of 10 mM Tris base to each well.
SRB values (absorbance at 480 nm) for the vehicle control (DMSO) were set at 100% and absorbance at 480 nm for the compound treatments were calculated relative to the control.

[1] = molecular target: T1, CDK7 complex (CDK7, Cyclin H, MAT1) (Homo sapiens, UniProt P50613); assay: CDK7/CycH/MAT1 trimeric complex kinase assay (PKLight luciferase); type: biochemical; settings: for remaining activity at 0.1 µM: read-out: CDK7 % remaining kinase activity after incubation with 100 nM of compound
T1 construct: purchased Proqinase GmbH, Germany
Description: (§1) Prepared test compounds, prepared at concentrations of 1000, 100, 10, 1 and 0.1 μM. Diluted 1 in 40 in ddH2O and added 1 μl of test compound or DMSO (controls). • 3. Incubated at 30° C. for 30 mins in a water bath. • 4. Added 10 µl of ATP […] per reaction to get a final concentration of 2 μM ATP. • 5. Made up to 25 μl total volume with ddH2O • 6. Incubated for 20 min at 30° C. in a water bath • 7. Used the PKLight Kinase assay (Cambrex, UK), add to each reaction 10 μl of stop reaction and mix thoroughly. Incubated at room temp for 10 min. • 8. Added 20 μ1 Luciferase reaction mixture (Cambrex, UK) per reaction, and further incubated at room temp for 10 mins and determined luciferase activities according to manufacturer's methods. Kinase reactions were added to 96 well microplates and luciferase activities determined using a Packard TopCount NXT™ luminescent counter (TopCount 9904). The luminometer was programmed to take a read time of 0.1 integrated reading and emission of light was detectable at 560 nm. • 9. All kinase inhibition assays were carried out in triplicate. As the bioluminescent signal is inversely proportional to kinase activity, all values were deducted from the no enzyme control. These values were then plotted utilizing the enzyme control as a reference to 100% activity and compared to all other values.

CDK2/cyclin A complex = molecular target: T2, CDK2/cyclin A complex (Homo sapiens, UniProt P24941); assay: CDK2/cyclin A kinase assay (as for CDK7); type: biochemical; settings: 100 nM, mean of three (standard deviation); for remaining activity at 0.1 µM: read-out: CDK2 % remaining kinase activity after incubation with 100 nM of compound
T2 construct: purchased Proqinase GmbH, Germany
Description: as §1
Inhibition of CDK2 was assessed using 50 ng CDK2/cyclin A complex (Proqinase GmbH, Germany), as above for CDK7 Inhibition of CDK9 was assessed using 100 ng CDK9/cyclin T complex (Proqinase GmbH, Germany), as above for CDK7.

[2] = 100 nM, mean of three (standard deviation)

T1 sequence (P50613 whole entry): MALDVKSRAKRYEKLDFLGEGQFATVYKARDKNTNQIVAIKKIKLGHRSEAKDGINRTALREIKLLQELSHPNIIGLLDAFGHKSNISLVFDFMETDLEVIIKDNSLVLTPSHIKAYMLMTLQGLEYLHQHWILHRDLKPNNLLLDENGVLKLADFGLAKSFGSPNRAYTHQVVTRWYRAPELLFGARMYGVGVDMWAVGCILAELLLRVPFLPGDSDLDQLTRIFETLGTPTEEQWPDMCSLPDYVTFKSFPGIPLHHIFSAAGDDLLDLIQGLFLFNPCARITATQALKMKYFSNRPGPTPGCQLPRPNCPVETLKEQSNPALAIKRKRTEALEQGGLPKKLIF
T1 sequence (P51946 whole entry partner): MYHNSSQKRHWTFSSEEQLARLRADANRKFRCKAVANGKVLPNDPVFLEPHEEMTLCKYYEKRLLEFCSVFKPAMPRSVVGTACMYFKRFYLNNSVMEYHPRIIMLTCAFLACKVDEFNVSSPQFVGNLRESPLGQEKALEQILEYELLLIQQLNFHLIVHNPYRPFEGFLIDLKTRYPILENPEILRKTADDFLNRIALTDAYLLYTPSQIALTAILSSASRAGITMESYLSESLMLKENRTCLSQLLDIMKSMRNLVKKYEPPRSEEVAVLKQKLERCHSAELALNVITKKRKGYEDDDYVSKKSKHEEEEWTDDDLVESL
T1 sequence (P51948 whole entry partner): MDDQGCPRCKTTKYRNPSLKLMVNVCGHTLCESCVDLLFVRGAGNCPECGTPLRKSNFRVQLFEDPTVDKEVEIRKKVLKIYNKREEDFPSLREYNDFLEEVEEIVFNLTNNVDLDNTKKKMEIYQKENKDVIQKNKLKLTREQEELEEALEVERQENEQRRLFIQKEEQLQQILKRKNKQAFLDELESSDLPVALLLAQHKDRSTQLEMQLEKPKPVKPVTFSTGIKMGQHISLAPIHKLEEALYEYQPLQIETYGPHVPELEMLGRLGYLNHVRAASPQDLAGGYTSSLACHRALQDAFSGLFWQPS

Compound | LC50 (concentration causing 50% net cell kill) (MCF-7 cell line; Homo sapiens, MCF7, 24 h) [µM] | IC (total growth inhibition) (MCF-7 cell line; Homo sapiens, MCF7, 24 h) [µM] | IC50 (MCF-7 cell line; Homo sapiens, MCF7) [µM] | remaining activity at 0.1 µM [1, 2] [%] | remaining activity at 0.1 µM (CDK2/cyclin A complex) [%] | further results
CC[C@H](CO)Nc1cc(NCc2ccccc2F)n2ncc(C(C)C)c2n1 [ICEC0204] | 57 | 70 | > 200 | 42 |  | 
CC(C)c1cnn2c(NCc3ccccc3)cc(N[C@@H](CO)CCCCCCc3ccc(F)nc3)nc12 [ICEC0205] | 22 | 142 | > 200 | 83 |  | 
CC(C)c1cnn2c(NCc3ccccc3F)cc(N[C@H](/C=C\CCC#Cc3ccc(F)cc3)CO)nc12 [ICEC0206] | 174 | > 200 | > 200 | 81 |  | 
CC(C)c1cnn2c(NCc3ccccc3F)cc(NCCCCCCc3cccnc3)nc12 [ICEC0207] | 53 | 111 | > 200 | 73 |  | 
CC(C)c1cnn2c(NCc3ccccc3F)cc(N[C@@H](CO)CCCCCCc3ccc(F)nc3)nc12 [ICEC0208] |  |  |  | 79 |  | 
CC(C)c1cnn2c(NCc3ccccc3)cc(NCCCCCCc3cccnc3)nc12 [ICEC0209] |  |  |  | 78 |  | 
CC(C)c1cnn2c(NCc3ccccc3)cc(NCCCCCCc3ccc(N)nc3)nc12 [ICEC0210] |  |  |  | 81 | 97 | 
CC(C)c1cnn2c(NCc3ccccc3F)cc(NCCCCCCc3ccc(N)nc3)nc12 [ICEC0211] | 39 | 79 | > 200 | 83 | 96 | 
CC(C)c1cnn2c(NCc3ccccc3F)cc(NCCCCCCCNS(C)(=O)=O)nc12 [ICEC0212] | 41 | 71 | 192 | 63 | 91 | 
CC(C)c1cnn2c(NCc3ccccc3F)cc(NCC3CCC(CN)CC3)nc12 (centres unmarked) [ICEC0213] |  | 119 | > 200 |  | 90 | LC50 (concentration causing 50% net cell kill) (MCF-7 cell line): 31 µM; CDK7 % remaining kinase activity after incubation with 100 nM of compound [1, 2]: 81% (0.2)
CC(C)c1cnn2c(NCc3ccccc3F)cc(NCC3CCC(CN)CC3)nc12 (centres unmarked) [ICEC0214] |  |  |  |  |  | LC50 (concentration causing 50% net cell kill) (MCF-7 cell line): 140 µM; IC50 (MCF-7 cell line): > 200 µM; IC (total growth inhibition) (MCF-7 cell line): >200 µM; CDK2 % remaining kinase activity after incubation with 100 nM of compound (CDK2/cyclin A complex): 74% (3.3); CDK7 % remaining kinase activity after incubation with 100 nM of compound [1, 2]: 60% (5.1)
CC(C)c1cnn2c(NCc3ccccc3)cc(NCCN3CCNCC3)nc12 [ICEC0216] | 26 | 42 | > 200 | 50 | 68 | 
CC(C)c1cnn2c(NCc3ccccc3F)cc(NCCN3CCNCC3)nc12 [ICEC0218] |  |  |  | 60 | 75 | 
CC(C)c1cnn2c(NCc3ccccc3F)cc(N[C@H]3CC[C@H](N)CC3)nc12 [ICEC0229] | 27 | 42 | 109 | 54 | 60 | 
CC(C)c1cnn2c(N[C@@H](C)c3ccccc3)cc(NCCCCCCNc3cc(N[C@@H](C)c4ccccc4)n4ncc(C(C)C)c4n3)nc12 [ICEC0236] | 11 | 28 | 46 | 91 | 68 | 
CC(C)c1cnn2c(NCc3ccccc3)cc(N[C@@H](CO)CCCCCCCc3cccnc3)nc12 [ICEC0238] | 11 | 28 | 46 | 77 | 67 | 
CC(C)c1cnn2c(NCc3ccc(Cl)cc3Cl)cc(Cl)nc12 [ICEC0239] | 59 | 200 | > 200 | 82 | 85 | 
CC(C)c1cnn2c(Nc3ccc(S(=O)(=O)N(C)C)cc3)cc(N[C@H]3CC[C@H](N)CC3)nc12 [ICEC0245] |  |  |  |  |  | remaining activity at 0.1 µM [1]: 61%

Reference: patent US8067424B2, “Selective inhibitors for cyclin-dependent kinases” (Emory University, priority 2007, dated 2011)
